According to patent US12472193B2, “Methods and compositions for treating and preventing respiratory related diseases and conditions with xylitol-headgroup lipid analogs” (National Jewish Health, priority 2017, dated 2025):
“Also recorded” adds a separate entry of the source.

Biological target: T1, TLR 9 (Mus musculus, UniProt Q9EQU3)
T1 construct: RAW264.7 cells secrete TNF-α in response to the TLR9 agonist CpG; endogenous in cells; host or cells: RAW264.7 (ATCC)
T1 sequence (Q9EQU3 26-1032): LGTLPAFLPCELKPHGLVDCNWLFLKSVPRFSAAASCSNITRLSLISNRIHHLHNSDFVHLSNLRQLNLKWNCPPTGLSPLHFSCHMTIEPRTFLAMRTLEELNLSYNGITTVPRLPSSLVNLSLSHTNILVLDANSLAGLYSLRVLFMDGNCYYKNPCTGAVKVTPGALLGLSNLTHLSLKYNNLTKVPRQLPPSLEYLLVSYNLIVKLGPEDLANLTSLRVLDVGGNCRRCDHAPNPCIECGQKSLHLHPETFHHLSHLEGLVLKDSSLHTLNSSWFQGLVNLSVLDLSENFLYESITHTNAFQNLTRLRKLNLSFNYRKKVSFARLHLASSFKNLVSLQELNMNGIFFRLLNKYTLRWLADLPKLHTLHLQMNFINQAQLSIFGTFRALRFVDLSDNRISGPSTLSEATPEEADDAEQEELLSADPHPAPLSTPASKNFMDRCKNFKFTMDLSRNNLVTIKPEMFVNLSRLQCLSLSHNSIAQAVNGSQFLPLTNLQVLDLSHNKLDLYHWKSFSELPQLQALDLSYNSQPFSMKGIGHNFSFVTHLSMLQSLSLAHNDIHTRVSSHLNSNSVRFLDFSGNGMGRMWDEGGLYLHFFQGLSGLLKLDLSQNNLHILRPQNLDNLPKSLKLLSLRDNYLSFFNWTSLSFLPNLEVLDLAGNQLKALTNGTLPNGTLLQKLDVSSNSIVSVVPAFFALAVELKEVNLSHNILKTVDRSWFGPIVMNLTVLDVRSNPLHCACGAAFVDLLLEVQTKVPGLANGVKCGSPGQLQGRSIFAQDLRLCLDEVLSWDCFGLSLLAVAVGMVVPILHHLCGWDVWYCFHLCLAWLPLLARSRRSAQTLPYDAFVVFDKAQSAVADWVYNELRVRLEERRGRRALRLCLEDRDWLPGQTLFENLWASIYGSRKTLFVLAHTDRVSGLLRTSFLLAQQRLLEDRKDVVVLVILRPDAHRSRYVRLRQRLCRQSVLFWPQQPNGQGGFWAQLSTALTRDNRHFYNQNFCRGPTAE
Test: CpG-induced TNFα secretion by RAW264.7 cells (TLR 9 antagonism)
Assay type: cell-based
Settings: for antagonism of TLR 9 activation (TNFα secretion): 5 μg/mL CpG, 100 μg/mL phospholipid, 5.5 hours; for TLR9 antagonist activity: reduction in cytokine secretion vs activating TLR ligand alone
Procedure: The mouse macrophage cell line, RAW264.7, was obtained from ATCC and maintained in DMEM, supplemented with 10% bovine growth serum and 1× penicillin streptomycin. Cells were maintained at 37° C. with 5% carbon dioxide: 95% air atmosphere within the incubator. Experiments were completed in a 96-well plate where cells were seated at a density of 1×10^5 cells per well, 24 prior to stimulation with TLR agonists and antagonists. Lipids were dried under a stream of nitrogen, hydrated with phosphate-buffered saline (PBS) at 37° C. for one hour, followed by water bath sonication to create liposomes. Each condition for cell stimulation and antagonism was prepared in DMEM in a separate tube and consisted of: control, TLR agonist, TLR agonist+lipid, and lipid alone. 100 μL aliquots of medium+agonists+antagonists were added to each well and incubated at 37° C. for 4 hours. Subsequently, the media were collected, diluted and an enzyme-linked immunosorbent assay (ELISA) was performed to quantify TNFα release by cells.
TLR 9 is another member of the intracellular TLRs found in the endosomal compartment. It detects unmethylated CpG sequences in DNA molecules commonly found among bacteria and DNA viruses (H. Hemmi, et al., “A Toll-like receptor recognizes bacterial DNA.,” Nature, vol. 408, no. 6813, pp. 740-5, December 2000; J. Lund, et al, “Toll-like receptor 9-mediated recognition of Herpes simplex virus-2 by plasmacytoid dendritic cells.,” J. Exp. Med., vol. 198, no. 3, pp. 513-20, August 2003). To test antagonism activity of PX lipids against TLR 9, RAW264.7 cells were stimulated for 5.5 hours with 5 μg/mL CpG in the absence or presence of 100 μg/mL phospholipid. […] The action of CpG is not affected by POPC, POPG, or many of the xylitol phospholipids, such as 14:0 DEPX, DSPX and 18:1 DEPX.

SMILES	antagonism of TLR 9 activation (TNFα secretion)	TLR9 antagonist activity
CCCCCCCCCCCCCCOC[C@H](COP(=O)(O)OCC(O)C(O)C(O)CO)OCCCCCCCCCCCCCC (mixture of isomers) [14:0 DEPX, sn-1-O-myristyl, sn-2-O-myristyl sn-3 glycerol phosphoxylitol]	not affected	
CCCCCCCC/C=C\CCCCCCCC(=O)O[C@H](COC(=O)CCCCCCCCCCCCCCC)COP(=O)([O-])OCC[N+](C)(C)C [POPC, 1-palmitoyl-2-oleoyl-sn-glycero-3-phosphocholine, reference compound]	not affected	
CCCCCCCC/C=C\CCCCCCCC(=O)O[C@H](COC(=O)CCCCCCCCCCCCCCC)COP(=O)(O)OCC(O)CO (stereo partly drawn) [POPG, palmitoyl-oleoyl-phosphatidylglycerol, reference compound]	not affected	
CCCCCCCCC=CCCCCCCCC(=O)OCC(COP(=O)(O)OCC(O)C(O)C(O)CO)OC(=O)CCCCCCCC=CCCCCCCCC (mixture of isomers) [DOPX, sn-1-oleoyl, sn-2-oleoyl sn-3 glycerol phosphoxylitol]	reduce the TNF-α secretion to control levels; also recorded: inhibits; also recorded: effective against TLR 9 activation; also recorded: only effective antagonists of TLR 9 activation	+ (cutoff being greater than a 50% reduction in cytokine secretion compared to activating TLR ligand alone)
CCCCCCCCCCCCCCCCCC(=O)OCC(COP(=O)(O)OCC(O)C(O)C(O)CO)OC(=O)CCCCCCCCCCCCCCCCC (stereo not drawn) [DSPX, sn-1-stearoyl, sn-2-stearoyl sn-3 glycerol phosphoxylitol]	not affected	
CCCCCCCC/C=C\CCCCCCCC(=O)O[C@H](COC(=O)CCCCCCCCCCCCCCC)COP(=O)(O)OCC(O)C(O)C(O)CO (stereo partly drawn) [POPX, sn-1-palmitoyl, sn-2-oleoyly sn-3 glycerol phosphoxylitol]	reduce the TNF-α secretion to control levels; also recorded: inhibits; also recorded: effective against TLR 9 activation; also recorded: only effective antagonists of TLR 9 activation	+ (cutoff being greater than a 50% reduction in cytokine secretion compared to activating TLR ligand alone)
CCCCCCCCCCCCCC(=O)OC[C@H](COP(=O)(O)OCC(O)C(O)C(O)CO)OC(=O)CCCCCCCCCCCCC (mixture of isomers) [DMPX, sn-1-myristoyl, sn-2-myristoyl sn-3 glycerol phosphoxylitol]	acts as an agonist for TLR9 activation	
CCCCCCCCC=CCCCCCCCCOCC(COP(=O)(O)OCC(O)C(O)C(O)CO)OCCCCCCCCC=CCCCCCCCC (mixture of isomers) [18:1 DEPX, sn-1-O-octadecenyl, sn-2-O-octadecenyl sn-3 glycerol phosphoxylitol]	not affected	
CCCCCC=CCC=CCCCCCCCC(=O)OCC(COP(=O)(O)OCC(O)C(O)C(O)CO)OC(=O)CCCCCCCC=CCC=CCCCCC (mixture of isomers) [18:2 DLPX, sn-1-linoleoyl, sn-2-linoleoyl sn-3 glycerol phosphoxylitol]	effective against TLR 9 activation; also recorded: only effective antagonists of TLR 9 activation	+ (cutoff being greater than a 50% reduction in cytokine secretion compared to activating TLR ligand alone)
